Measurements taken from article PMC9897788, “Design, synthesis and cytotoxic evaluation of novel bis-thiazole derivatives as preferential Pim1 kinase inhibitors with in vivo and in silico study” (Journal of Enzyme Inhibition and Medicinal Chemistry, 2023).

Assays:
[1] = system: Breast T47D cancer cell line; experiment: In vitro inhibition concentration of breast T47D cancer cell line; type: cell-based; conditions: Homo sapiens
Experimental: Cells were seeded and treated with a range of inhibitors concentration 39–10,000 nM after 24 h relative to DMSO. […]

OVCAR-8 = experiment: NCI 60 cell one-dose screening (SRB); type: cell-based; conditions: Homo sapiens; OVCAR-8, Ovarian Cancer; single dose 10 µM, 48 h; read-out: Percentage of cellular growth inhibition
Procedure, shortened: (§1)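 Cells were grown 24 h in RPMI 1640 with 5% FBS and 2 mM L-glutamine, then exposed to compounds at 10 µM for 48 h at 37 °C, 5% CO2. Fixed with TCA, they were stained with SRB and read at 515 nm. Growth % versus the no-drug control was converted to inhibition as 100 minus growth.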

SF-268 = experiment: NCI 60 cell one-dose screening (SRB); type: cell-based; conditions: Homo sapiens; SF-268, CNS Cancer; single dose 10 µM, 48 h; read-out: Percentage of cellular growth inhibition
Procedure, shortened: as §1

ACHN = experiment: NCI 60 cell one-dose screening (SRB); type: cell-based; conditions: Homo sapiens, Renal Cancer, single dose 10 µM, 48 h, read-out: Percentage of cellular growth inhibition
Procedure, shortened: as §1

LOX IMVI = experiment: NCI 60 cell one-dose screening (SRB); type: cell-based; conditions: Homo sapiens, Melanoma, single dose 10 µM, 48 h, read-out: Percentage of cellular growth inhibition
Procedure, shortened: as §1

T-47D = experiment: NCI 60 cell one-dose screening (SRB); type: cell-based; conditions: Homo sapiens, T47D, 48 h, Breast Cancer, single dose 10 µM, read-out: Percentage of cellular growth inhibition
Procedure, shortened: as §1

MDA-MB-468 = experiment: NCI 60 cell one-dose screening (SRB); type: cell-based; conditions: Homo sapiens; MDA-MB-468, Breast Cancer; single dose 10 µM, 48 h; read-out: Percentage of cellular growth inhibition
Procedure, shortened: as §1

RXF 393 = experiment: NCI 60 cell one-dose screening (SRB); type: cell-based; conditions: Homo sapiens; RXF 393, Renal Cancer; single dose 10 µM, 48 h; read-out: Percentage of cellular growth inhibition
Procedure, shortened: as §1

NCI/ADR-RES = experiment: NCI 60 cell one-dose screening (SRB); type: cell-based; conditions: Homo sapiens, Ovarian Cancer, single dose 10 µM, 48 h, read-out: Percentage of cellular growth inhibition
Procedure, shortened: as §1

MDA-MB-435 = experiment: NCI 60 cell one-dose screening (SRB); type: cell-based; conditions: Homo sapiens; MDA-MB-435, Melanoma; single dose 10 µM, 48 h; read-out: Percentage of cellular growth inhibition
Procedure, shortened: as §1

NCI-H23 = experiment: NCI 60 cell one-dose screening (SRB); type: cell-based; conditions: Homo sapiens; NCI-H23, Non-Small Cell Lung Cancer; single dose 10 µM, 48 h; read-out: Percentage of cellular growth inhibition
Procedure, shortened: as §1

UACC-62 = experiment: NCI 60 cell one-dose screening (SRB); type: cell-based; conditions: Homo sapiens; UACC-62, Melanoma; single dose 10 µM, 48 h; read-out: Percentage of cellular growth inhibition
Procedure, shortened: as §1

UO-31 = experiment: NCI 60 cell one-dose screening (SRB); type: cell-based; conditions: Homo sapiens; UO-31, Renal Cancer; single dose 10 µM, 48 h; read-out: Percentage of cellular growth inhibition
Procedure, shortened: as §1

PC-3 = experiment: NCI 60 cell one-dose screening (SRB); type: cell-based; conditions: Homo sapiens; PC-3, Prostate Cancer; single dose 10 µM, 48 h; read-out: Percentage of cellular growth inhibition
Procedure, shortened: as §1

SR = experiment: NCI 60 cell one-dose screening (SRB); type: cell-based; conditions: Homo sapiens, Leukemia, single dose 10 µM, 48 h, read-out: Percentage of cellular growth inhibition
Procedure, shortened: as §1

SK-OV-3 = experiment: NCI 60 cell one-dose screening (SRB); type: cell-based; conditions: Homo sapiens; SK-OV-3, Ovarian Cancer; single dose 10 µM, 48 h; read-out: Percentage of cellular growth inhibition
Procedure, shortened: as §1

K-562 = experiment: NCI 60 cell one-dose screening (SRB); type: cell-based; conditions: Homo sapiens, K562; K-562, Leukemia; single dose 10 µM, 48 h; read-out: Percentage of cellular growth inhibition
Procedure, shortened: as §1

Compound | IC50 ([1]; 48 h) | IC50 ([1]; 96 h) | inhibition at 10 µM (OVCAR-8) | inhibition at 10 µM (SF-268) | inhibition at 10 µM (ACHN) | inhibition at 10 µM (LOX IMVI) | inhibition at 10 µM (T-47D) | inhibition at 10 µM (MDA-MB-468) | inhibition at 10 µM (RXF 393) | inhibition at 10 µM (NCI/ADR-RES) | inhibition at 10 µM (MDA-MB-435) | inhibition at 10 µM (NCI-H23) | inhibition at 10 µM (UACC-62) | inhibition at 10 µM (UO-31) | inhibition at 10 µM (PC-3) | inhibition at 10 µM (SR) | inhibition at 10 µM (SK-OV-3) | inhibition at 10 µM (K-562) | melting point
Clc1ccc(-c2csc(Nc3cccc(Nc4nc(-c5ccc(Cl)cc5)cs4)c3)n2)cc1 [6c, N^1,N^3-bis(4–(4-chlorophenyl)thiazol-2-yl)benzene-1,3-diamine] | 27.3 µM | 1.85 µM | 7.7% | 22.6% | 14.3% | 7.3% | 18.3% | 13.4% | 16.7% | 4.6% | -7.1% | 10.1% | 17.4% | 21.6% | 22.2% | 3.9% | 8.3% | 5.8% | 100 to 101 °C
CC(=O)c1sc(Nc2cccc(Nc3nc(C)c(C(C)=O)s3)c2)nc1C [3b, 1,1’-(2,2’-(1,3-Phenylenebis(azanediyl))bis(4-methylthiazole-5,2-diyl))diethanone] | 5.77 µM | 1.46 µM | 56.6% | 28.9% | 63.5% | 51.9% | – | 45% | 53% | 44.4% | 40.9% | 36.8% | 51.2% | 67.8% | 48.7% | 61.5% | 74.2% | 59.1% | –
Cc1csc(Nc2cccc(Nc3nc(C)cs3)c2)n1 [3a, N^1,N^3-bis(4-methylthiazol-2-yl)benzene-1,3-diamine] | 7.82 µM | 2.86 µM | 21.2% | 1.4% | 20.7% | 25.5% | 36.8% | 15.9% | 4.8% | 20.1% | 4% | 21.2% | 22.3% | 15.7% | 20.2% | 17.3% | 10.7% | 17.1% | 137 to 139 °C
CCOC(=O)c1sc(Nc2cccc(Nc3nc(C)c(C(=O)OCC)s3)c2)nc1C [3c, Diethyl 2,2’-(1,3-phenylenebis(azanediyl))bis(4-methylthiazole-5-carboxylate)] | – | – | 17.3% | 14.8% | 24.6% | 25.5% | 63.9% | 52.4% | 9% | 33.1% | 17.9% | 41.6% | 33.1% | 32.9% | 22.9% | 36.1% | 1.3% | 39.9% | 107 to 108 °C
CCOc1ccc(/N=N/c2sc(Nc3cccc(Nc4nc(C)c(/N=N/c5ccc(OCC)cc5)s4)c3)nc2C)cc1 [5b, N^1,N^3-bis(5-((4-ethoxyphenyl)diazinyl)-4-methylthiazol-2-yl)benzene-1,3-diamine] | – | – | -4% | 4.5% | 1.1% | 2.6% | 17.1% | 4.3% | 1% | 1.5% | 1.6% | 10.6% | 20.5% | 12.4% | 6.2% | -15.5% | 1.1% | -0.4% | 116 to 118 °C
